{"source": "patent US5984868A", "about": "“Device for measuring an absorbed dose of gas by skin and method therefor” (Institute of Occupational Safety and Health, Council of …, priority 1998, dated 1999)", "key": {"[1]": {"settings": "Johanson et al, 1988; cited from earlier work"}, "[2]": {"assay": "Absorbed dose of vapor by skin of an arm in feedback-controlled exposure chamber, six voluntary subjects (Embodiment 1, 300±10 ppm)", "format": "in vivo, human", "settings": "human, topical or ocular, 300±10 ppm vapor; mean of six subjects; read-out: permeability constant, mean (converted)", "protocol": "(§1) The injection rate of the injection system was checked with a five-digit balance (Mettler model AT-201, Switzerland). 2-methoxy ethanol was continuously injected into a glass bottle, and six continuous injections were measured to obtain the average value and the coefficient of variation. Each continuous injection had 10 injection does. An average injection dose was obtained from the […] injection doses. The average dose of each ejection was then used as a computation base for checking the injection dose of the system. After each human experiment, the above weight calibration was used again to check the average injection dose of each ejection so as to obtain the relative percentage error of the average injection doses before and after the experiment. The flash evaporation chamber is a small glass chamber which is embraced by a heating strap and a temperature control device, as shown in FIG. 1. The flash evaporation chamber was used to accelerate the evaporation of the liquid 2-methoxy ethanol and to shorten the reaction time of the system. When the evaporation of the liquid was slower than the skin absorption rate, it will cause the injection system to continuously inject the 2-methoxy ethanol, and thus result in an excess absorption dose of the vapor by the skin of the human under test. The flash evaporation chamber of the present invention can avoid this problem by providing with the heating strap.\n(§2) The measurement of the absorbed dose of vapor by skin was carried out respectively with each of six voluntary subjects whose personal data are shown in the following Table 3:\n(§3) The method of the first embodiment is illustrated in FIG. 1 in which the arm of a subject is shown being put into an exposure chamber. The exposure chamber contains 2-methoxy ethanol having a concentration of 300±10 ppm, with the relative humidity and the temperature of the exposure chamber being respectively 80±2%, and 25±1° C. For details of the control of the first embodiment, please refer to the Preparatory Embodiments described above.\n(§4) According, m5 can be justifiably ignored."}, "[3]": {"tested_on": "skin", "assay": "Absorbed dose of vapor by skin of an arm in feedback-controlled exposure chamber, six voluntary subjects (Embodiment 1, 300±10 ppm)", "format": "in vivo, human", "protocol": "as §1, §2, §3, §4"}, "[4]": {"tested_on": "skin", "assay": "Absorbed dose of vapor by skin in exposure chamber (Embodiment 2, 25±1.5 ppm)", "settings": "25±1.5 ppm vapor", "excerpt": "The test concentration of the hazardous gas is 25 ppm in compliance with the allowable limit set forth by OSHA. In light of the lack of an exposure chamber large enough to accommodate a human body in its entirety, a small exposure chamber was used to investigate the absorption of the hazardous gas by the skin of an arm. On the basis of the result of the hand, the absorption of the hazardous gas by the skin of the whole body was estimated. […] The hand and the arm of a worker are often exposed on the job and are therefore used as subjects of the investigation. It is also assumed that the gas absorption rate of the skin of a hand is about equal to the average value of the gas absorption rate of the skin of the whole body. […] As a result, an absorbed dose of 300 ppm by a hand is about corresponding to an absorbed dose of 15 ppm by a whole body (300 ppm*1,250 cm^2 /18,000 cm^2 * 0.75). […] The digital signals were then transmitted to a computer (Pentium 100). When the concentration signal of the hazardous gas contained in the exposure chamber received by the computer was lower than the lower limit of 23.5 ppm, an instruction was generated by the software program and transmitted to activate the automatic injection system to raise quickly the concentration up to the upper limit of 26.5 ppm. […] Throughout the experiment of the present invention, a series of injected doses of the hazardous gas were obtained. The sum of the injected doses was used to compute the absorbed dose of the hazardous gas by the skin.\nThe rotation speeds of the two fans were adjusted to obtain desired wind velocities and flow streams by using an adjustable resistor. […] When the hand was extended into the exposure chamber, the contact portions of the hand and the exposure chamber were covered with two layers of aluminum foil in conjunction with a transparent plastic bag therebetween. In addition, the upper arm was banded with the 3M bandage to avert the gas leak. Located respectively in the front, the middle and the rear of the exposure chamber was a detector for monitoring the uniformity of the gas concentration distribution and the change in the gas concentration throughout the experiment.\nIt must be noted here that m1 is equal to the post-calibration injection rate multiplied by the accumulated injection times. […] This implies that only m1 and m2 must be measured with precision."}, "[5]": {"settings": "general statement, no test shown; cited from earlier work"}, "[6]": {"assay": "2-methoxy ethanol dose in the subject's exhalation", "format": "in vivo", "settings": "human, exhaled air, topical or ocular; of the total absorbed dose; read-out: 2-methoxy ethanol doses in the subject's exhalation, share of total absorbed dose", "from_the_text": "as §4"}, "[7]": {"settings": "300±10 ppm vapor, 80±2% RH, 25±1° C., arm, individual subjects 1-6"}, "[8]": {"settings": "300±10 ppm vapor, mean of six subjects"}}, "note": "Several values for one entry are separate records, joined by “and”; a condition that tells them apart may be missing. Equal values may be shown once.", "data": [{"compound": "COCCO", "note": "[2-methoxy ethanol]", "values": [{"measurement": "distribution coefficient of the human blood relative to air", "setting": "[1]", "result": "32,836"}, {"measurement": "Papp", "setting": "[2]", "result": 3890, "unit": "×10⁻⁶ cm/s"}, {"measurement": "m1 (accumulated doses added to stabilize the concentration in the exposure chamber)", "setting": "[3]; [7]", "result": "430.00 mg and 296.88 mg and 172.46 mg and 285.11 mg and 350.67 mg and 394.56 mg"}, {"measurement": "m2 (doses captured by the condensation dehumidifier)", "setting": "[3]; [7]", "result": "328.50 mg and 222.75 mg and 137.75 mg and 210.00 mg and 301.00 mg and 304.75 mg"}, {"measurement": "m3 (gas residual left on the exposed arm after termination of exposure)", "setting": "[3]; [7]", "result": "0.35 mg and 0.58 mg and 0.66 mg and 0.63 mg and 0.16 mg"}, {"measurement": "permeability constant", "setting": "[3]; [7]", "result": "5575 ×10⁻⁶ cm/s and 4600 ×10⁻⁶ cm/s and 1650 ×10⁻⁶ cm/s and 4508 ×10⁻⁶ cm/s and 2540 ×10⁻⁶ cm/s and 4469 ×10⁻⁶ cm/s"}, {"measurement": "skin absorption rate", "setting": "[3]; [7]", "result": "18.72 μg/cm^2 /h and 15.45 μg/cm^2 /h and 5.55 μg/cm^2 /h and 15.14 μg/cm^2 /h and 8.52 μg/cm^2 /h and 15.01 μg/cm^2 /h"}, {"measurement": "Δm (absorbed dose by skin, m1-m2-m3-m4)", "setting": "[3]; [7]", "result": "96.11 mg and 68.51 mg and 29.01 mg and 69.44 mg and 44.04 mg and 84.61 mg"}, {"measurement": "skin absorption rate, mean", "setting": "[3]; [8]", "result": 13.07, "unit": "μg/cm^2 /h"}, {"measurement": "Δm (absorbed dose by skin), mean", "setting": "[3]; [8]", "result": 65.29, "unit": "mg"}, {"measurement": "m3 and m4, respectively, relative to the dose of m1", "setting": "[3]; of the dose of m1", "result": "less than 1%"}, {"measurement": "m1 (accumulated doses added to the exposure chamber)", "setting": "[4]", "result": 34.5, "unit": "mg"}, {"measurement": "m2 (doses captured by the condensation dehumidifier)", "setting": "[4]", "result": 27.1, "unit": "mg"}, {"measurement": "m3 (gas residual left on the exposed arm)", "setting": "[4]", "result": 0.04, "unit": "mg"}, {"measurement": "m5 (doses contained in the subject's exhalations)", "setting": "[4]", "result": "trace"}, {"measurement": "water solubility", "setting": "[5]", "result": "excellent"}, {"measurement": "dose excreted", "setting": "[6]", "result": "< 0.4", "unit": "%"}]}]}
